# Data as given in patent US10526323B2, “Indazole and azaindazole substituted compounds as mGluR4 allosteric potentiators, compositions, and methods of treating neurological dysfunction” (Vanderbilt University, priority 2015, dated 2020).
# Biological target: mGluR4 (UniProt Q14833)
# Experiment: mGluR4 potentiation assay: increase in response to an EC20 concentration of agonist (species not given)
# Type: cell-based
# Details: EC50 for potentiation of mGluR4; table does not state human or rat
# Method in brief: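 Human mGluR4 was expressed in CHO cells read with a Ca2+-sensitive dye; rat mGluR4 was co-expressed with GIRK in […] read by thallium flux. Potentiation is the rise over agonist-alone response, with EC50 and maximal potentiation from non-linear fits.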
row,SMILES,EC50 [nM]
1,"Cc1nn(Cc2noc3ccccc23)c2ccc(Nc3n[nH]c4cccnc34)cc12 [Example 92, N-(1-(benzo[d]isoxazol-3-ylmethyl)-3-methyl-1H-indazol-5-yl)-1H-pyrazolo[4,3-b]pyridin-3-amine]",81
2,"Cc1ccc(-n2nc(C)c3cc(Nc4n[nH]c5cccnc45)ccc32)cc1 [Example 93, N-(3-methyl-1-(p-tolyl)-1H-indazol-5-yl)-1H-pyrazolo[4,3-b]pyridin-3-amine]",> 10000
3,"Cc1nn(CCO)c2ccc(Nc3n[nH]c4cccnc34)cc12 [Example 94, 2-(5-((1H-pyrazolo[4,3-b]pyridin-3-yl)amino)-3-methyl-1H-indazol-1-yl)ethan-1-ol]",> 10000
4,"CCCCCn1nc(C)c2cc(Nc3n[nH]c4nccnc34)ccc21 [Example 95, N-(3-methyl-1-pentyl-1H-indazol-5-yl)-1H-pyrazolo[3,4-b]pyrazin-3-amine]",35
5,"[2H]C([2H])([2H])n1ncc2cc(Nc3n[nH]c4cccnc34)ccc21 [Example 96, N-(1-(methyl-d3)-1H-indazol-5-yl)-1H-pyrazolo[4,3-b]pyridin-3-amine]",863
6,"Cc1nn(C(C)(C)C)c2ccc(Nc3n[nH]c4cccnc34)cc12 [Example 97, N-(1-(tert-butyl)-3-methyl-1H-indazol-5-yl)-1H-pyrazolo[4,3-b]pyridin-3-amine]",575
7,"Cc1c2cc(Nc3n[nH]c4cccnc34)ccc2nn1C(C)(C)C [Example 98, N-(2-(tert-butyl)-3-methyl-2H-indazol-5-yl)-1H-pyrazolo[4,3-b]pyridin-3-amine]",> 10000
8,"Cc1nn(C)c2ccc(Nc3n[nH]c4nccnc34)cc12 [Example 99, N-(1,3-dimethyl-1H-indazol-5-yl)-1H-pyrazolo[3,4-b]pyrazin-3-amine]",757
9,"Cc1nn(CC2CC(C3CC3)=NO2)c2ccc(Nc3n[nH]c4cccnc34)cc12 (stereo not drawn) [Example 100, N-(1-((3-cyclopropyl-4,5-dihydroisoxazol-5-yl)methyl)-3-methyl-1H-indazol-5-yl)-1H-pyrazolo[4,3-b]pyridin-3-amine]",258
10,"Cc1c2cc(Nc3n[nH]c4cccnc34)ccc2nn1C [Example 101, N-(2,3-dimethyl-2H-indazol-5-yl)-1H-pyrazolo[4,3-b]pyridin-3-amine]",> 10000
11,"CCC(C)n1nc(C)c2cc(Nc3n[nH]c4cccnc34)ccc21 (stereo not drawn) [Example 102, N-(1-(sec-butyl)-3-methyl-1H-indazol-5-yl)-1H-pyrazolo[4,3-b]pyridin-3-amine]",367
12,"Cc1cc(Cn2ncc3cc(Nc4n[nH]c5cccnc45)ccc32)no1 [Example 103, N-(1-((5-methylisoxazol-3-yl)methyl)-1H-indazol-5-yl)-1H-pyrazolo[4,3-b]pyridin-3-amine]",125
13,"Cc1cc(Cn2ncc3cc(Nc4n[nH]c5nccnc45)ccc32)no1 [Example 104, N-(1-((5-methylisoxazol-3-yl)methyl)-1H-indazol-5-yl)-1H-pyrazolo[3,4-b]pyrazin-3-amine]",83
14,"CCC(C)n1nc2ccc(Nc3n[nH]c4cccnc34)cc2c1C (stereo not drawn) [Example 105, N-(2-(sec-butyl)-3-methyl-2H-indazol-5-yl)-1H-pyrazolo[4,3-b]pyridin-3-amine]",> 10000
15,"Cc1nn(CC2CCCC2)c2ccc(Nc3n[nH]c4cccnc34)cc12 [Example 106, N-(1-(cyclopentylmethyl)-3-methyl-1H-indazol-5-yl)-1H-pyrazolo[4,3-b]pyridin-3-amine]",145
16,"Cc1nn(C2CCC2)c2ccc(Nc3n[nH]c4cccnc34)cc12 [Example 107, N-(1-cyclobutyl-3-methyl-1H-indazol-5-yl)-1H-pyrazolo[4,3-b]pyridin-3-amine]",374
17,"Cc1nn(C)c2ccc(Nc3n[nH]c4cccnc34)cc12 [Example 108, N-(1,3-dimethyl-1H-indazol-5-yl)-1H-pyrazolo[4,3-b]pyridin-3-amine]",345
18,"C=CCn1nc(C)c2cc(Nc3n[nH]c4cccnc34)ccc21 [Example 109, N-(1-allyl-3-methyl-1H-indazol-5-yl)-1H-pyrazolo[4,3-b]pyridin-3-amine]",59
19,"Cn1nc(C(F)(F)F)c2cc(Nc3n[nH]c4cccnc34)ccc21 [Example 110, N-(1-methyl-3-(trifluoromethyl)-1H-indazol-5-yl)-1H-pyrazolo[4,3-b]pyridin-3-amine]",119
20,"Cc1nn(CC2CC2)c2ccc(Nc3n[nH]c4cccnc34)cc12 [Example 111, N-(1-(cyclopropylmethyl)-3-methyl-1H-indazol-5-yl)-1H-pyrazolo[4,3-b]pyridin-3-amine]",36
21,"Cc1nn(CC(C)C)c2ccc(Nc3n[nH]c4cccnc34)cc12 [Example 112, N-(1-isobutyl-3-methyl-1H-indazol-5-yl)-1H-pyrazolo[4,3-b]pyridin-3-amine]",95

row,SMILES,EC50 [nM]
1,"CCCn1nc(C)c2cc(Nc3n[nH]c4cccnc34)ccc21 [Example 113, N-(3-methyl-1-propyl-1H-indazol-5-yl)-1H-pyrazolo[4,3-b]pyridin-3-amine]",123
2,"CCCCn1nc(C)c2cc(Nc3n[nH]c4cccnc34)ccc21 [Example 114, N-(1-butyl-3-methyl-1H-indazol-5-yl)-1H-pyrazolo[4,3-b]pyridin-3-amine]",45
3,"Cc1nn(CC2CC(c3ncccc3F)=NO2)c2ccc(Nc3n[nH]c4cccnc34)cc12 (stereo not drawn) [Example 115, N-(1-((3-(3-fluoropyridin-2-yl)-4,5-dihydroisoxazol-5-yl)methyl)-3-methyl-1H-indazol-5-yl)-1H-pyrazolo[4,3-b]pyridin-3-amine]",135
4,"Cc1nn(CC(F)(F)F)c2ccc(Nc3n[nH]c4cccnc34)cc12 [Example 116, N-(3-methyl-1-(2,2,2-trifluoroethyl)-1H-indazol-5-yl)-1H-pyrazolo[4,3-b]pyridin-3-amine]",96
5,"Cc1nn(C2CCOCC2)c2ccc(Nc3n[nH]c4cccnc34)cc12 [Example 117, N-(3-methyl-1-(tetrahydro-2H-pyran-4-yl)-1H-indazol-5-yl)-1H-pyrazolo[4,3-b]pyridin-3-amine]",1460
6,"COC(=O)Cn1nc(C)c2cc(Nc3n[nH]c4cccnc34)ccc21 [Example 118, methyl 2-(5-((1H-pyrazolo[4,3-b]pyridin-3-yl)amino)-3-methyl-1H-indazol-1-yl)acetate]",867
7,"Cc1nn(CC(C)(C)C)c2ccc(Nc3n[nH]c4cccnc34)cc12 [Example 119, N-(3-methyl-1-neopentyl-1H-indazol-5-yl)-1H-pyrazolo[4,3-b]pyridin-3-amine]",295
8,"Cc1nn(CC2CC(C(C)C)=NO2)c2ccc(Nc3n[nH]c4cccnc34)cc12 (stereo not drawn) [Example 120, N-(1-((3-isopropyl-4,5-dihydroisoxazol-5-yl)methyl)-3-methyl-1H-indazol-5-yl)-1H-pyrazolo[4,3-b]pyridin-3-amine]",144
9,"CC1=NOC(Cn2nc(C)c3cc(Nc4n[nH]c5cccnc45)ccc32)C1 (stereo not drawn) [Example 121, N-(3-methyl-1-((3-methyl-4,5-dihydroisoxazol-5-yl)methyl)-1H-indazol-5-yl)-1H-pyrazolo[4,3-b]pyridin-3-amine]",377
10,"C=C(C)Cn1nc(C)c2cc(Nc3n[nH]c4cccnc34)ccc21 [Example 122, N-(3-methyl-1-(2-methylallyl)-1H-indazol-5-yl)-1H-pyrazolo[4,3-b]pyridin-3-amine]",49
11,"[2H]C([2H])([2H])n1nc(C)c2cc(Nc3n[nH]c4cccnc34)ccc21 [Example 123, N-(3-methyl-1-(methyl-d3)-1H-indazol-5-yl)-1H-pyrazolo[4,3-b]pyridin-3-amine]",218
12,"[2H]C([2H])(C)n1nc(C)c2cc(Nc3n[nH]c4cccnc34)ccc21 [Example 124, N-(1-(ethyl-1,1-d2)-3-methyl-1H-indazol-5-yl)-1H-pyrazolo[4,3-b]pyridin-3-amine]",109
13,"Cc1nn(Cc2ccc3ccccc3n2)c2ccc(Nc3n[nH]c4cccnc34)cc12 [Example 125, N-(3-methyl-1-(quinolin-2-ylmethyl)-1H-indazol-5-yl)-1H-pyrazolo[4,3-b]pyridin-3-amine]",1530
14,"Cc1noc(Cn2nc(C)c3cc(Nc4n[nH]c5cccnc45)ccc32)n1 [Example 126, N-(3-methyl-1-((3-methyl-1,2,4-oxadiazol-5-yl)methyl)-1H-indazol-5-yl)-1H-pyrazolo[4,3-b]pyridin-3-amine]",264
15,"[2H]C([2H])(C)n1nc(C)c2cc(Nc3n[nH]c4nccnc34)ccc21 [Example 127, N-(1-(ethyl-1,1-d2)-3-methyl-1H-indazol-5-yl)-1H-pyrazolo[3,4-b]pyrazin-3-amine]",154
16,"C=C(C)Cn1nc(C)c2cc(Nc3n[nH]c4nccnc34)ccc21 [Example 128, N-(3-methyl-1-(2-methylallyl)-1H-indazol-5-yl)-1H-pyrazolo[3,4-b]pyrazin-3-amine]",49
17,"Cc1nnc(Cn2nc(C)c3cc(Nc4n[nH]c5cccnc45)ccc32)o1 [Example 129, N-(3-methyl-1-((5-methyl-1,3,4-oxadiazol-2-yl)methyl)-1H-indazol-5-yl)-1H-pyrazolo[4,3-b]pyridin-3-amine]",1300
18,"Cc1cc(Cn2nc(C)c3cc(Nc4n[nH]c5cccnc45)ccc32)on1 [Example 130, N-(3-methyl-1-((3-methylisoxazol-5-yl)methyl)-1H-indazol-5-yl)-1H-pyrazolo[4,3-b]pyridin-3-amine]",63
19,"CCCn1nc(C)c2cc(Nc3n[nH]c4nccnc34)ccc21 [Example 131, N-(3-methyl-1-propyl-1H-indazol-5-yl)-1H-pyrazolo[3,4-b]pyrazin-3-amine]",107
20,"Cc1nn(CCN2CCOCC2)c2ccc(Nc3n[nH]c4cccnc34)cc12 [Example 132, N-(3-methyl-1-(2-morpholinoethyl)-1H-indazol-5-yl)-1H-pyrazolo[4,3-b]pyridin-3-amine]",330
21,"COCCn1nc(C)c2cc(Nc3n[nH]c4cccnc34)ccc21 [Example 133, N-(1-(2-methoxyethyl)-3-methyl-1H-indazol-5-yl)-1H-pyrazolo[4,3-b]pyridin-3-amine]",379
